The record followed here is patent US10766866B2, “Deterrents for arthropods and marine organisms” (priority 2017, dated 2020).

One may read the EC50 as the concentration giving half of the maximal effect.

The target in experiment [1] is T1, AgAOctR (Anopheles octopamine receptor isoform A), cloned α-like OctR (Anopheles gambiae, UniProt Q7PRZ8).
T1 construct: Gq calcium readout
T1 sequence (Q7PRZ8 1-592): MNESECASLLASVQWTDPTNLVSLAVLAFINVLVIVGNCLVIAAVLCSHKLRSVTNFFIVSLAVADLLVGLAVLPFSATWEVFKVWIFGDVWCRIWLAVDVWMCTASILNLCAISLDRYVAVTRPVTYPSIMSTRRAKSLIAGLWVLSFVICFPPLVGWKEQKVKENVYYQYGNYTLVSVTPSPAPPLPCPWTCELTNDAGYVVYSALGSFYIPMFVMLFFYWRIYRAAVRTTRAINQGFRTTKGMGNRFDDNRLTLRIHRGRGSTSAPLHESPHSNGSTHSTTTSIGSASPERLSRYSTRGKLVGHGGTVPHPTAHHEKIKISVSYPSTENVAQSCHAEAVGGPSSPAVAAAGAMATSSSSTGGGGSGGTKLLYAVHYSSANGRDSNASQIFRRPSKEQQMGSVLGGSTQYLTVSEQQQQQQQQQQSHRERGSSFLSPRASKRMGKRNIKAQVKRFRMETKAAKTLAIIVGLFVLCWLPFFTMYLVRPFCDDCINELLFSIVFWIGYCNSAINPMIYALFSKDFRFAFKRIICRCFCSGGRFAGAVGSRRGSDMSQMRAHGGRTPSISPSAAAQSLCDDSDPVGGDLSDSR
Kind of experiment: OctR activation: change in intracellular calcium (CALCIUM 6QR dye, FlexStation 3) in stably transfected mammalian cells. In kind it is cell-based. The conditions noted are these: agonist. The method in brief:
(§1)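 Calcium flux readout: CALCIUM 6QR fluorescence vs time, FlexStation 3. Cells = G418-selected stable clones, receptor Bmax matched by [3H]rauwolscine binding (pH 7.4, 25 °C, 2 hr).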

For experiment [2], the target named is T2, DmOctR (Drosophila octopamine receptor), cloned α-like OctR (Drosophila melanogaster, UniProt Q7JQF1).
T2 construct: Gq calcium readout
T2 sequence (Q7JQF1 1-645): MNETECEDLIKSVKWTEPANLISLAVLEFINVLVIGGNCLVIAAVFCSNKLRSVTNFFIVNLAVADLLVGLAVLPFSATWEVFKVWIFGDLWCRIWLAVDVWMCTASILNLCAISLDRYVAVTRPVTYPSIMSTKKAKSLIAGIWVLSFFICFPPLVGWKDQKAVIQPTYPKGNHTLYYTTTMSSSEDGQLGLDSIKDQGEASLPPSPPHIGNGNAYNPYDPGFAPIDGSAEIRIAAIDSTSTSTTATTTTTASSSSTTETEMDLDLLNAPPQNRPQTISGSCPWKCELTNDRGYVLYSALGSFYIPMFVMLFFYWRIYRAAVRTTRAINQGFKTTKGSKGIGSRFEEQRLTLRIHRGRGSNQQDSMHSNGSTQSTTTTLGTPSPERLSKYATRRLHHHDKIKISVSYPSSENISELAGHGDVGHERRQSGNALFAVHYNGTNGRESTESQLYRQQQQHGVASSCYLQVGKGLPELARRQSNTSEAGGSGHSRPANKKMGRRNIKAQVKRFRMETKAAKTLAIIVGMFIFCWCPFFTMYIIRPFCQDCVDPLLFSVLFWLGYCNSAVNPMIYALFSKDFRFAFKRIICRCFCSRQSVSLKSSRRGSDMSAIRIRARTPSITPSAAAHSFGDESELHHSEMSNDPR
The experiment is described as above. It counts as cell-based. The conditions noted are these: agonist. The gist of the method:
as §1

The subject of experiment [3] is Balanus OctR (BiOctR). The experiment is described as follows: OctR activation, change in intracellular calcium. It counts as cell-based, Balanus improvises. The conditions noted are these: Balanus barnacle OctR over Homo sapien α2-AR subtypes. The source says: Functional expression of cloned arthropod OctRs and human α2-ARs: The cDNAs for α-like OctRs from different arthropod species (e.g., Anopheles gambiae, Aedes aegypti, Periplaneta americana, Drosophila melanogaster, Ixodes scapularis, Balanus improvises) and for α2-AR subtypes from humans were individually subcloned into mammalian expression vectors. These plasmids, which harbor a resistance gene for the selection drug G418 and the cDNA sequence for the receptor of interest, were individually transfected into mammalian cells using a calcium phosphate precipitation method. G418 selection was then employed to generated stable clonal cell lines. Utilizing rapid filtration radioligand binding techniques, the cell surface density of receptor expression of the individual clonal cell lines was determined at equilibrium and those with similar high levels of expression were selected for further experiments. […] The radioligand was [3H]rauwolscine and non-specific binding was determined in the presence of 10 μM atipamezole. […] The radioactivity remaining on the filters was quantified by scintillation counting. Receptor density (Bmax) was back calculated knowing the specific activity of the radioligand and applying the equation for a square hyperbola model: Bmax=(Y·(KD+X))/X, where Y is [specifically bound radioligand] and X=[radio ligand concentration]. […]
A general note: A change in cytosolic calcium serves as a functional read-out for many receptors and channels.

Experiment [4] concerns Periplaneta americana OctR (PaOctR). Kind of experiment: OctR activation, change in intracellular calcium. In kind it is cell-based. The conditions noted are these: Periplaneta cockroach OctR over Homo sapien α2-AR subtypes. The source says:
(§2) Functional expression of cloned arthropod OctRs and human α2-ARs: The cDNAs for α-like OctRs from different arthropod species (e.g., Anopheles gambiae, Aedes aegypti, Periplaneta americana, Drosophila melanogaster, Ixodes scapularis, Balanus improvises) and for α2-AR subtypes from humans were individually subcloned into mammalian expression vectors. These plasmids, which harbor a resistance gene for the selection drug G418 and the cDNA sequence for the receptor of interest, were individually transfected into mammalian cells using a calcium phosphate precipitation method. G418 selection was then employed to generated stable clonal cell lines. Utilizing rapid filtration radioligand binding techniques, the cell surface density of receptor expression of the individual clonal cell lines was determined at equilibrium and those with similar high levels of expression were selected for further experiments. Briefly, binding conditions were 50 mM Tris binding buffer pH 7.4 at 25° C. and an ice-cold wash buffer 10 mM Tris-HCl, pH 7.4). The radioligand was [3H]rauwolscine and non-specific binding was determined in the presence of 10 μM atipamezole. Following the addition of membranes prepared from the clonal cell lines, samples were mixed and allowed 2 hr. to reach equilibrium before rapid filtration and washing through 0.3% PEI-treated GF/C filters. The radioactivity remaining on the filters was quantified by scintillation counting. Receptor density (Bmax) was back calculated knowing the specific activity of the radioligand and applying the equation for a square hyperbola model: Bmax=(Y·(KD+X))/X, where Y is [specifically bound radioligand] and X=[radio ligand concentration]. The affinity (KD) for the radioligand for each receptor was determined in separate saturation isotherm binding experiments using the same binding conditions as describe above.
(§3) Measurement of OctR activation by measuring changes in intracellular calcium: Activation of arthropod α-like OctRs increases intracellular calcium via a Gq-coupling mechanism. This involves activation of phospholipase C leading to an increase in intracellular inositol triphosphate (IP3) which then activates IP3-gated calcium channels in the endoplasmic reticulum causing a transient rise in intracellular calcium. These changes in intracellular calcium upon OctR activation were measured by loading cells with intracellular calcium sensitive dye CALCIUM 6QR and reading the change in calcium-induced fluorescent signal over time on a FlexStation 3 microplate reader.

Experiment [5] relates to Anopheles gambiae mosquito isoform A OctR (AgAOctR). Kind of experiment: OctR activation, change in intracellular calcium. It counts as cell-based. The conditions noted are these: AgAOctR over Homo sapien α2-AR subtypes.
From the text: as §2, §3

Experiment [6] has as its system Ixodes scapularis tick OctR (IsTOctR). Kind of experiment: OctR activation, change in intracellular calcium. The conditions noted are these: Ixodes tick OctR over Homo sapien α2-AR subtypes. It counts as cell-based.
From the text: as §2, §3

Experiment [7] relates to IsTOctR (Ixodes octopamine receptor), cloned α-like OctR. The experiment is described as follows: OctR activation: change in intracellular calcium (CALCIUM 6QR dye, FlexStation 3) in stably transfected mammalian cells. It counts as cell-based, Ixodes scapularis. The conditions noted are these: agonist, read-out: IsTOctR (Ixodes octopamine receptor) EC50.
From the text: as §2, §3

For `C=C(c1cnc[nH]1)c1cccc(C)c1C` [AZ0027], the concentration giving a half-maximal response (EC50) in experiment [1] is 0.013 ± 0.0046 nM; in experiment [2], 8.7 ± 2.7 nM; in experiment [7], 0.51 ± 0.28 nM. For the same compound, the “selectivity Ki(Hsα2-AR)/EC50(OctR)” value in experiment [3], in experiment [4], in experiment [5] and in experiment [6] was “highly selective” throughout.
